How the values were obtained:
RARγ = target: T1, RARγ (Homo sapiens, UniProt P13631); assay: RARE-luciferase reporter assay in transfected CV-1 cells (affinity to retinoic acid receptor), RARγ; type: cell-based; conditions: treated 24 hours at final concentration 10^−4M, control group 5000
T1 construct: expressed in transfected cells; host or cells: CV-1 cells (ATCC)
T1 sequence (P13631 1-454): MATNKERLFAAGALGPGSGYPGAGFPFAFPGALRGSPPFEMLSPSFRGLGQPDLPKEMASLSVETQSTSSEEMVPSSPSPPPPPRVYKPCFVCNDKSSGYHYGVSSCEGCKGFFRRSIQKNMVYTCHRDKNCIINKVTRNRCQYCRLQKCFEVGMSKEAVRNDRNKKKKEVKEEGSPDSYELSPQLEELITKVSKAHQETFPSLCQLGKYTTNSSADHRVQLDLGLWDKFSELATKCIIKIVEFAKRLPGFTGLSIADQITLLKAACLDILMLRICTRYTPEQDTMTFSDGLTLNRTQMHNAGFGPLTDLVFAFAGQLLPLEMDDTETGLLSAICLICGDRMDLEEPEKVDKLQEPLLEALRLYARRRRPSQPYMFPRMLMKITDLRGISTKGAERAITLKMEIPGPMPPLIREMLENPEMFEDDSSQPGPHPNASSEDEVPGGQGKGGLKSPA
Method: (§1) Receptor-expression plasmid, pECE-RARα and pECE-RARγ were engineered by the prior method (Mol. Cell. Biol. 1996, 16, 1138-1149). RARE-tk-Luc, i.e. RARE reporter was obtained by inserting RARE fragment from b-RARE-tk-CAT into pGL3 luciferase basic vector. CV-1 cells were obtained from ATCC (American Type Culture Collection).
(§2) CV-1 cells were seeded into 96-well microtiter plate at 5,000 cells per well and cultured in DMEM (Dulbecco's Modified Eagle's Media) supplemented with 2.5% fetal bovine serum. 24 Hours later, the cells were transfected with 10 ng of pECE-RARα, long of pECE-RARγ, 100 ng of reporter plasmid and 100 ng of β-galactosidase-expression vector, using LipofectaminPlus (GIBCO BRL, grand island, N.Y.).

RARα = target: T2, RARα (Homo sapiens, UniProt P10276); assay: RARE-luciferase reporter assay in transfected CV-1 cells (affinity to retinoic acid receptor), RARα; type: cell-based; conditions: treated 24 hours at final concentration 10^−4M, control group 1000
T2 construct: expressed in transfected cells; host or cells: CV-1 cells (ATCC)
T2 sequence (P10276 1-462): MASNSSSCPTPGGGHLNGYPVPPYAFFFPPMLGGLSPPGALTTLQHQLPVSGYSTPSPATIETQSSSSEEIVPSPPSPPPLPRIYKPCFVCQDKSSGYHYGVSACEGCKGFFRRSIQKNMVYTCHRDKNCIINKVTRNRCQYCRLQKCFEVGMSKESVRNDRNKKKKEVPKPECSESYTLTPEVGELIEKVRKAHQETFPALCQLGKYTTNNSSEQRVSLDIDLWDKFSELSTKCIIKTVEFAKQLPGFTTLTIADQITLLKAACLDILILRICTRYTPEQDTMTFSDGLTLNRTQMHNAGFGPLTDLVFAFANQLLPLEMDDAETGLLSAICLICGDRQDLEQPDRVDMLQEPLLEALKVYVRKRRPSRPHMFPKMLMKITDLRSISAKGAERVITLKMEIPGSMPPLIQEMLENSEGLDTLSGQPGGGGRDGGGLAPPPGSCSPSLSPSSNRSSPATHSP
Excerpt: This example illustrates affinities of hydroxamic acid derivatives obtained in Examples 1 to 55 to retinoic acid receptor, in comparison with retinol and retinoic acid.
as §1
as §2, with “N.Y.). 24 Hours post-transfection, the cells were treated for 24 hours with hydroxamic acid derivatives of Examples 1˜55 or retinol at a final concentration of 10^−4M or with retinoic acid at a final concentration of 10^−5M, which is 10 times lower concentration than those of the former.” for “N.Y.).”

white guinea pigs = assay: Phototoxicity test (UVA irradiation); conditions: for Evaluation (phototoxicity): 1%(w/v) solution, UVA 15 J/cm^2; for Phototoxic index: 50 μl of 1%(w/v) solution, UVA 320~380 nm 15 J/cm^2, observed 24, 48 and 72 hours
collagenase = assay: Inhibition of collagenase expression in human fibroblasts (ELISA kit); type: cell-based; conditions: 10^−4M, 24 hours, serum-free medium, relative to control group = 100
Method: Human fibroblasts were seeded into 96-well microtiter plate at 5,000 cells per well and then cultured to 90% of growth in DMEM (Dulbecco's Modified Eagle's Media) supplemented with 2.5% fetal bovine serum. Then, the fibroblastes were cultured in serum-free DMEM for 24 hours and treated for 24 hours with 10^−4M of hydroxamic acid derivatives of Examples 1˜55, retinol or retinoic acid in serum-free medium, and then the culture fluid was collected.
(§3) For each culture fluid, collagenase production was measured with collagenase kit (commercialized by AmershamPharmacia Biotech). Firstly, the culture fluid was added to 96-well plate spread with primary collagenase antibody and then antigen-antibody reaction was performed in an incubator for 3 hours. Later, chromophore-conjugated secondary antibody was added to the 96-well plate and then reacted for 15 minutes. Then, color former was added thereto, to induce development at room temperature for 15 minutes. 1M of sulfuric acid was added to stop the reaction. […] The color density depends on the progress of the reaction. The absorbance of the yellow 96-well plate was measured at 405 nm using absorptiometer. Collagenase expression was calculated by the following equation 1. Herein, the absorbance of the culture fluid collected from the medium with no material treated was used as a control. Collagenase expression (%)=(Absorbance of test group with said material treated/Absorbance of control group with no material treated)×100 [Equation 1]
Collagenase expression was evaluated as a relative value, in consideration that the value of control group with no material treated is 100.

procollagen type I = assay: Effect on collagen biosynthesis (procollagen type I ELISA) in human fibroblasts; type: cell-based; conditions: 10^−4M, 24 hours, serum-free medium, relative to control group = 100
Method: Human fibroblasts were seeded into 24-well plate at 1×10^5 cells per well and then cultured to 90% of growth.
For each supernatant, procollagen production was measured with procollagen type I ELISA kit.

elastase = assay: Inhibition of elastase expression in human fibroblasts (ELISA kit); type: cell-based; conditions: 10^−4M, 24 hours, serum-free medium, relative to control group = 100
Method: as §3, with “elastase” for “collagenase”, “Elastase” for “Collagenase”, “2.” for “1.”, “2]” for “1]”
Elastase expression was evaluated as a relative value, in consideration that the value of control group with no material treated is 100.

rabbits = assay: Primary skin irritation test on animals (Draize P.I.I.); conditions: depilated back; for P.I.I. (Primary Irritation Index): 0.5 ml of 1% solution in 1,3-butylene glycol:ethanol 7:3, observed 24 or 72 hours later; for Evaluation (skin irritation): 1% solution, according to Draize's P.I.I.
Method: Test was performed using fifty-six (56) of healthy male rabbits whose backs were depilated. […] 0.5ml of the test sample solution was applied to the right site of 2.5 cm×2.5 cm region on each of the depilated back. Left site with no sample treated was compared as a control. 24 hours or 72 hours later, skin abnormality such as erythema, crust and edema was observed.
Based on the score of skin response, skin irritation was evaluated according to Draize's P.I.I.(Primary Irritation Index) and compared with retinoic acid.

Structure (SMILES) | Luciferase activity RARγ (RARγ) | Luciferase activity RARα (RARα) | Evaluation (phototoxicity) (white guinea pigs) | Phototoxic index (white guinea pigs) | Collagenase expression (%) (collagenase) | Collagen biosynthesis (%) (procollagen type I) | Elastase expression (%) (elastase) | P.I.I. (Primary Irritation Index) (rabbits) | Evaluation (skin irritation) (rabbits)
CC(C)(C)c1ccc(C(=O)Nc2ccc(C(=O)NO)cc2)cc1 [Example 8, N-[4-(N-hydroxycarbamoyl)phenyl][4-tert-butylphenyl]carboxyamide] | 12000 | 10002 | No phototoxicity (lower value than 0.5, criterion value to be estimated as no phototoxicity) | 0 | 90% | 112% | 69% | 0.330 | No irritation
Cc1ccc(C(=O)Nc2ccc(C(=O)NO)cc2)cc1C [Example 9, N-[4-(N-hydroxycarbamoyl)phenyl][3,4-dimethylphenyl]carboxyamide] | 12000 | 12000 | No phototoxicity (lower value than 0.5, criterion value to be estimated as no phototoxicity) | 0 | 65% | 120% | 67% | 0.470 | No irritation
CN(O)C(=O)c1ccc(NC(=O)C23CC4CC(CC(C4)C2)C3)cc1 [Example 11, adamantyl-N-[4-(N-hydroxy-N-methylcarbamoyl)phenyl]carboxyamide] | 10000 | 11600 | No phototoxicity (lower value than 0.5, criterion value to be estimated as no phototoxicity) | 0 | 81% | 110% | 65% | 0.375 | No irritation
CN(C(=O)c1ccccc1)c1ccc(C(=O)NO)cc1 [Example 12, N-[4-(N-hydroxycarbamoyl)phenyl]-N-methyl-benzamide] | 11300 | 14500 | No phototoxicity (lower value than 0.5, criterion value to be estimated as no phototoxicity) | 0 | 64% | 122% | 80% | 0.410 | No irritation
Cc1ccc(C(=O)N(C)c2ccc(C(=O)NO)cc2)cc1 [Example 13, N-[4-(N-hydroxycarbamoyl)phenyl]-N-methyl-[4-methylphenyl]carboxyamide] | 11200 | 12000 | No phototoxicity (lower value than 0.5, criterion value to be estimated as no phototoxicity) | 0 | 70% | 117% | 84% | 0.500 | No irritation
Cc1cccc(C(=O)N(C)c2ccc(C(=O)NO)cc2)c1 [Example 14, N-[4-(N-hydroxycarbamoyl)phenyl]-N-methyl-[3-methylphenyl]carboxyamide] | 10300 | 18000 | No phototoxicity (lower value than 0.5, criterion value to be estimated as no phototoxicity) | 0 | 72% | 115% | 75% | 0.231 | No irritation
CCc1ccc(C(=O)N(C)c2ccc(C(=O)NO)cc2)cc1 [Example 15, N-[4-(N-hydroxycarbamoyl)phenyl]-N-methyl-[4-ethylphenyl]carboxyamide] | 10400 | 14500 | No phototoxicity (lower value than 0.5, criterion value to be estimated as no phototoxicity) | 0 | 79% | 112% | 76% | 0.789 | No irritation
CCCc1ccc(C(=O)N(C)c2ccc(C(=O)NO)cc2)cc1 [Example 16] | 11200 | 12300 | No phototoxicity (lower value than 0.5, criterion value to be estimated as no phototoxicity) | 0 | 80% | 120% | 77% | 0.567 | No irritation
CC(C)c1ccc(C(=O)N(C)c2ccc(C(=O)NO)cc2)cc1 [Example 17] | 11700 | 12400 | No phototoxicity (lower value than 0.5, criterion value to be estimated as no phototoxicity) | 0 | 81% | 111% | 82% | 0.123 | No irritation

From patent US7282522B2, “Hydroxamic acid derivatives and the method for preparing thereof” (Amorepacific Corporation, priority 2003, dated 2007)
